Results: patent US20240059675A1, “PIPERIDINYLPYRIDINYLCARBONITRILE DERIVATIVES AS INHIBITORS OF GLUTAMINYL-PEPTIDE CYCLOTRANSFERASE AND GLUTAMINYL-PEPTIDE CYCLOTRANSFERASE LIKE PROTEIN” (Boehringer Ingelheim International GmbH, priority 2022, published 2024)

Legend:
[1] = test system: SIRPα signalling induced by A549 cells; test: Assay B: SIRPα signalling assay using A549 cells; type: cell-based; settings: Homo sapiens, 48 h compound incubation, Jurkat PathHunter SIRPαV1 reporter cells, read-out: Inhibition of SIRPα signalling induced by A549 cells: IC50
Protocol: (§1) Two cell types are independently used: the Raji cell line (lymphoblast-like human cell line derived from B lymphocytes from a Burkitt's lymphoma patient in 1963) and A549 cells (adenocarcinomic human alveolar basal epithelial cells).
(§2) Test compounds were dissolved in 100% DMSO and serially diluted into a white 384-well microtiter cell culture plate (PerkinElmer #60076780 in case of Raji assay; PDL-coated plates Greiner #781945 in case of A549 assay). 5000 Raji cells (ATCC #CC86) or 5000 A549 cells (ATCC #CCL-185) in Assay Complete Cell Plating reagent 30 (DiscoverX 93-0563R30B) were added per well. The assay plate was incubated for 48 h at 37° C., 95% humidity and 5% CO2. 15000 reporter cells (Jurkat PathHunter SIRPαV1, DiscoverX #93-1135C19) were added to each well, and the plate was incubated for 5 h at 37° C., 95% humidity and 5% CO2. Bioassay reagent 1 of the PathHunter Bioassay detection kit (DiscoverX 93-0001) was added to each well of the plate using a multichannel pipette followed by a 15 min incubation at room temperature. Afterwards bioassay reagent 2 was added followed by 60 min incubation at room temperature (incubation in the dark).
(§3) The analysis of the data was performed using the luminescence signal generated by beta-galactosidase in the PathHunter reporter cell line. The luminescence measurement was done using a Pherastar Multi-Mode Reader. Dose-response curves & IC50 data were calculated with 4-parameter sigmoidal dose response formula.

QPCT = QPCT (Homo sapiens (Human), UniProt Q16769); test: Assay A: biochemical QPCT activity assay (MALDI-TOF MS, CD47 peptide substrate); settings: 0.5 nM enzyme, 20 μM CD47 peptide substrate; read-out: Inhibition of QPCT: IC50
QPCT, sequence (Q16769 29-361): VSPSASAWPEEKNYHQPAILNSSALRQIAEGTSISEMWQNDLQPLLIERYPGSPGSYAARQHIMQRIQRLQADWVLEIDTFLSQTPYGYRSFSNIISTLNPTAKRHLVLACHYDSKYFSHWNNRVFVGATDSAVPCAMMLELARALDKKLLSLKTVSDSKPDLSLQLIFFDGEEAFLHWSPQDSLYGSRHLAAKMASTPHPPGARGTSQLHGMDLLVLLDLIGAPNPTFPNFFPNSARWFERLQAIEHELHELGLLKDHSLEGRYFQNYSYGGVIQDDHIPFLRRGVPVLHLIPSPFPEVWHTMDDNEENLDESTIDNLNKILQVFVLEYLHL

[2] = Assay C: permeability in CACO-2 cells; type: in vitro ADME; settings: human, pH 7.2; for efflux ratio: Caco-2, permeability B-A / permeability A-B; for Papp A→B: Caco-2, apical to basolateral
QPCTL = QPCTL (Homo sapiens (Human), UniProt Q9NXS2); test: Assay A: biochemical QPCTL activity assay (MALDI-TOF MS, CD47 peptide substrate); settings: 0.5 nM enzyme, 10 μM CD47 peptide substrate; read-out: Inhibition of QPCTL: IC50
QPCTL, sequence (Q9NXS2 whole entry): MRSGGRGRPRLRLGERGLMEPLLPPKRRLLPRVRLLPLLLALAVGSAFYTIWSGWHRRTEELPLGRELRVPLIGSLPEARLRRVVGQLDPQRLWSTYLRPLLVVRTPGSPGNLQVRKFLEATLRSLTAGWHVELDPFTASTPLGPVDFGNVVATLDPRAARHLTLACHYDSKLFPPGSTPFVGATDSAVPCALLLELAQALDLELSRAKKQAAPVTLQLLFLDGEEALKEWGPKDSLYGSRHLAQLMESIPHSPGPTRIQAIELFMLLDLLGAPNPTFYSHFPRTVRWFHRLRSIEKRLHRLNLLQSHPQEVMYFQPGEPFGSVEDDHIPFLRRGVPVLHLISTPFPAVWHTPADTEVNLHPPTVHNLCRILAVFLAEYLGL

[3] = test system: SIRPα signalling induced by Raji cells; test: Assay B: SIRPα signalling assay using Raji cells; type: cell-based; settings: Homo sapiens, 48 h compound incubation, Jurkat PathHunter SIRPαV1 reporter cells, read-out: Inhibition of SIRPα signalling induced by Raji cells: IC50
Protocol: as §1, §2, §3

| Structure (SMILES) | IC50 [1] [nM] | IC50 (QPCT) [nM] | efflux ratio [2] | Papp A→B [2] [×10⁻⁶ cm/s] | IC50 (QPCTL) [nM] | IC50 [3] [nM] |
| --- | --- | --- | --- | --- | --- | --- |
| Cn1cnnc1C1(F)CCN(c2c(C#N)ccnc2-c2cnn3ncccc23)CC1 [Example 14] | 116 | 10 | 0.6 | 41 | 11 | 436 |
| Cn1cnnc1C1(F)CCN(c2c(C#N)ccnc2-c2cnc3nc(C(F)(F)F)cn3c2)CC1 [Example 15] | 33 | 1 | 14.1 | 0.9 | 1 | 59 |
| Cn1cnnc1C1(F)CCN(c2c(C#N)ccnc2-c2cnc(F)c(OCC3CC3)c2)CC1 [Example 26] | 7 |  | 1.7 | 45 |  | 103 |
| Cn1cnnc1C1(C)CCN(c2c(C#N)ccnc2-c2ccc(F)nc2)CC1 [Example 3] | 29 | 2 | 8.4 | 4.9 | 2 | 467 |
| C=CCOc1cc(-c2nccc(C#N)c2N2CCC(F)(c3nncn3C)CC2)cnc1F [Example 28] | 33 | 3 |  |  | 2 | 180 |
| Cn1cnnc1C1(F)CCN(c2c(C#N)ccnc2-c2cnc3nn(C(C)(C)C(F)(F)F)cc3c2)CC1 [Example 29] | 13 |  | 15.2 | 2.5 |  | 81 |
| Cn1cnnc1C1(F)CCN(c2c(C#N)cc(C(F)(F)F)nc2-c2ccc(F)nc2)CC1 [Example 17] | 49 | 8 | 1.3 | 38 | 4 | 92 |
| Cn1cnnc1C1(F)CCN(c2c(C#N)ccnc2-c2cnc3nn(C(C)(C)c4ccc(F)cc4)cc3c2)CC1 [Example 32] | 3 | 1 | 12.6 | 3.5 | 1 | 6 |
| Cc1cc(C#N)c(N2CCC(F)(c3nncn3C)CC2)c(-c2ccc(F)nc2)n1 [Example 16] | 8 | 4 | 1.7 | 40 | 1 | 86 |
| Cn1cnnc1C1(C)CCN(c2c(-c3ccc(F)nc3)ccnc2C#N)CC1 [Example 11] | 237 | 11 | 11.6 | 3.1 | 14 | 1820 |
| Cn1cnnc1C1(F)CCN(c2c(C#N)ccnc2-c2cncc(-n3cccn3)c2)CC1 [Example 19] | 18 | 10 | 6.5 | 4.9 | 2 | 509 |
| Cn1cnnc1C1(F)CCN(c2c(C#N)ccnc2-c2ccc(F)nc2)CC1 [Example 1] | 51 |  |  | 28 |  | 168 |
| COc1cc(-c2nccc(C#N)c2N2CCC(F)(c3nncn3C)CC2)cnc1F [Example 7] | 27 | 12 | 3.3 | 18 | 2 | 214 |
| Cn1cc2cc(-c3nccc(C#N)c3N3CCC(F)(c4nncn4C)CC3)cnc2n1 [Example 21] | 22 | 3 |  |  | 1 | 322 |
| Nc1ncc(C2CCN(c3ncccc3-c3ccc(F)nc3)CC2)s1 [Example 1094, reference compound] |  |  |  |  |  | 3240 |
| Cn1cnnc1C1(F)CCN(c2c(C#N)ccnc2-c2cnsc2)CC1 [Example 25] | 44 | 30 |  |  | 10 | 1610 |
| Cn1cnnc1C1CCN(c2c(C#N)ccnc2-c2ccc(F)nc2)CC1 [Example 2] | 60 | 17 | 3.5 | 4.8 | 2 | 245 |
| CC(C)Oc1cc(-c2nccc(C#N)c2N2CCC(c3nncn3C)CC2)cnc1F [Example 4] | 38 | 12 | 5.9 | 8.5 | 1 | 182 |

| Structure (SMILES) | IC50 [1] [nM] | IC50 (QPCT) [nM] | efflux ratio [2] | Papp A→B [2] [×10⁻⁶ cm/s] | IC50 (QPCTL) [nM] | IC50 [3] [nM] |
| --- | --- | --- | --- | --- | --- | --- |
| Cn1cnnc1C1(F)CCN(c2c(C#N)ccnc2-c2cnc3nn(C4(C(F)(F)F)CC4)cc3c2)CC1 [Example 30] | 47 | 2 | 54.9 | 0.5 | 2 | 87 |
| Cc1cc(-c2nccc(C#N)c2N2CCC(F)(c3nncn3C)CC2)cnc1F [Example 6] | 34 | 8 | 2.3 | 34 | 2 | 190 |
| Cn1cnnc1C1(F)CCN(c2c(C#N)ccnc2-c2cnc(F)c(OC3CC3)c2)CC1 [Example 27] | 39 | 5 | 2 | 36 | 3 | 176 |
| Cn1cnnc1C1(F)CCN(c2c(C#N)ccnc2-c2cnc3nnc(C(C)(C)C)n3c2)CC1 [Example 12] | 31 | 2 | 11.2 | 2.5 | 2 | 53 |
| COc1cc(-c2nccc(C#N)c2N2CCC(c3nncn3C)CC2)cnc1F [Example 5] | 44 | 13 | 14 | 2 | 2 | 350 |
| Cn1cnnc1C1(F)CCN(c2c(C#N)ccnc2-c2ccnnc2)CC1 [Example 22] | 103 | 12 | 10 | 0.2 | 3 | 653 |
| Nc1nnc(C2CCN(c3ncccc3-c3ccc(F)nc3)CC2)s1 [Example 1095, reference compound] | 161 |  |  |  |  | 2200 |
| Cn1cnnc1C1CCN(c2c(-c3ccc(F)nc3)ccnc2C#N)CC1 [Example 9] |  | 26 | 7.8 | 1.8 | 4 | 1090 |
| Cn1cnnc1C1(F)CCN(c2c(C#N)ccnc2-c2cnc(F)c(F)c2)CC1 [Example 23] | 114 | 32 |  |  | 6 | 1660 |
| Cn1cnnc1C1CCN(c2ncccc2-c2cccnc2)CC1 [SEN180, reference compound] | 868 |  |  |  |  | 2970 |
| Cn1cnnc1C1(F)CCN(c2c(C#N)ccnc2-c2cncc(C3CC3)c2)CC1 [Example 20] | 342 | 29 |  |  | 21 | 1950 |
| Cn1cnnc1C1(F)CCN(c2c(C#N)ccnc2-c2cnc(F)c(Cl)c2)CC1 [Example 18] | 112 | 23 | 1.4 | 41 | 8 | 482 |
| Cn1cnnc1C1(F)CCN(c2c(C#N)ccnc2-c2cnc3nc(C(C)(C)C)cn3c2)CC1 [Example 13] | 22 | 1 | 35 | 1 | 1 | 65 |
| Cn1cnnc1C1(F)CCN(c2c(C#N)ccnc2-c2cnc3nn(C4(C)CC(F)(F)C4)cc3c2)CC1 [Example 31] | 21 | 3 | 27.6 | 1.7 | 2 | 179 |
| Cn1cnnc1C1(F)CCN(c2c(C#N)ccnc2-c2cnc3nn(C(C)(C)C)cc3c2)CC1 [Example 8] | 22 |  |  | 1.3 |  | 25 |
| Cn1cnnc1C1(F)CCN(c2c(-c3ccc(F)nc3)ccnc2C#N)CC1 [Example 10] |  | 8 | 5.6 | 11 | 4 | 352 |
| Cn1cnnc1C1(F)CCN(c2c(C#N)ccnc2-c2cn[nH]c2)CC1 [Example 24] | 693 | 31 |  |  | 18 | 1770 |
| Cn1cnnc1C1CCN(c2ncccc2-c2ccc(F)nc2)CC1 [SEN177, reference compound] | 214 |  |  |  |  | 1360 |
